Where “and” joins values, the source holds several entries; their conditions need not be identical. Identical values can stand only once. Like-named read-outs stand apart in the source and are kept apart here.
Legend:
Kv7.1 channel = conditions: Kv7.1 without KCNE1; cited from earlier work
[1] = tested on: I Ks channel (coexpression of Kv7.1 and KCNE1); conditions: cited from earlier work; for Effect on the V 0.5 of the I Ks channel at pH 7.5: Kv7.1 co-expressed with KCNE1, pH 7.5
[2] = target: wild type human I Ks channel (Kv7.1/KCNE1) (Homo sapiens, UniProt P51787); test: Two-electrode voltage clamp of I Ks channel; type: cell-based; conditions: pH 9.0, mean ± SEM; for Max ΔV 0.5 (shift of voltage dependence of activation) / Max I/I 0 (relative increase in K+ current at 0 mV) / Max G max/G max0 (maximal conductance normalized to control): fitted maximum from dose response; for Max ΔV 0.5 (shift of voltage dependence of activation): G-V from tail currents
[3] = K m of ΔV 0.5, Hill fit of dose response
[4] = read-out: K m of ΔV 0.5, Hill fit of dose response

Chain of wild type human I Ks channel (Kv7.1/KCNE1) (P51787 whole entry): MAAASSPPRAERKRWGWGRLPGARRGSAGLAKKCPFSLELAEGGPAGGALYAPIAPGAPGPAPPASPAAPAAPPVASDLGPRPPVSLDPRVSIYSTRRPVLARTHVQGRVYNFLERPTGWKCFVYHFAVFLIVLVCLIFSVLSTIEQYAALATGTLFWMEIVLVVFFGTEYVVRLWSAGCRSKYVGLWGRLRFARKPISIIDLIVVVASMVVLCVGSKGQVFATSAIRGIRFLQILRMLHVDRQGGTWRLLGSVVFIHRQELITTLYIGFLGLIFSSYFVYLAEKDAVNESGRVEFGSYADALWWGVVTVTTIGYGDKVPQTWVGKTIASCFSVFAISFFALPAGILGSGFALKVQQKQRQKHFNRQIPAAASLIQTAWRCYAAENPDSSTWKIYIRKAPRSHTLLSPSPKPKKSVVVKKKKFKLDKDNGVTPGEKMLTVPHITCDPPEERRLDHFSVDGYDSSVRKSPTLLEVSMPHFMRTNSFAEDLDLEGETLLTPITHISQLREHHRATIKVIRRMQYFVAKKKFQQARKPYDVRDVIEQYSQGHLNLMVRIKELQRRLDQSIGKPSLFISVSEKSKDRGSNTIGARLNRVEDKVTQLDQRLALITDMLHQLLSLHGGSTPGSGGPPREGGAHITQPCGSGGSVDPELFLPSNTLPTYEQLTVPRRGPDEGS

CC/C=C\C/C=C\C/C=C\C/C=C\C/C=C\C/C=C\CCC(=O)O [22:6Δ4,7,10,13,16,19, Docosahexaenoic acid (4,7,10,13,16,19)]
Shift of the voltage dependence of activation (V 0.5) of the Kv7.1 channel (Kv7.1 channel): to more negative voltages | Effect on the V 0.5 of the I Ks channel at pH 7.5 [1]: no effect on the V 0.5 | Effect on K+ current when Kv7.1 is co-expressed with KCNE1, pH 7.5 ([1]; pH 7.5): abolished | EC50 ([2]; K m of G max, Hill fit of dose response): 1.8 µM | EC50 [2, 3]: 3.1 ± 0.1 µM | Max ΔV 0.5 (shift of voltage dependence of activation) [2]: −20.2 ± 0.1 mV | Max I/I 0 (relative increase in K+ current at 0 mV) [2]: 3.2 ± 0.1 and 3.2 ± 0.01 | Max G max/G max0 (maximal conductance normalized to control) [2]: 1.5 ± 0.2

CCC=CCC=CCC=CCCCCCC(=O)O [16:3Δ7,10,13, Hexadecatrienoic acid (7,10,13)]
Max ΔV 0.5 (shift of voltage dependence of activation) [2]: −13.4 ± 0.6 mV | Max I/I 0 (relative increase in K+ current at 0 mV) [2]: 2.1 ± 0.02 | Max G max/G max0 (maximal conductance normalized to control) [2]: 0.9 ± 0.2 | EC50 [2, 4]: 7.2 ± 0.5 µM

CC/C=C\C/C=C\C/C=C\C/C=C\C/C=C\CCCC(=O)O [20:5Δ5,8,11,14,17, Eicosapentaenoic acid (5,8,11,14,17)]
EC50 [2, 3]: 9.8 ± 4.4 µM | Max ΔV 0.5 (shift of voltage dependence of activation) [2]: −25 ± 4.6 mV | Max I/I 0 (relative increase in K+ current at 0 mV) [2]: 2.4 ± 0.05 | Max G max/G max0 (maximal conductance normalized to control) [2]: 1.0 ± 0.1

CCC=CCC=CCC=CCCCC(=O)O [14:3Δ5,8,11, Tetradecatrienoic acid (5,8,11)]
Max ΔV 0.5 (shift of voltage dependence of activation) [2]: 0.80 ± 6.5 mV | Max I/I 0 (relative increase in K+ current at 0 mV) [2]: 1.1 ± 0.15 | Max G max/G max0 (maximal conductance normalized to control) [2]: 0.84 ± 0.1

CCCCC/C=C\C/C=C\CCCCCCCC(=O)O [18:2Δ9,12, Linoleic acid (9,12)]
Max ΔV 0.5 (shift of voltage dependence of activation) [2]: −29.8 ± 1.7 mV | Max I/I 0 (relative increase in K+ current at 0 mV) [2]: 3.6 ± 0.6 | Max G max/G max0 (maximal conductance normalized to control) [2]: 1.06 ± 0.02

CCCCC/C=C\C/C=C\C/C=C\C/C=C\CCCC(=O)NCCS(=O)(=O)O [N‐AT, N‐arachidonoyl taurine]
Effect on the V 0.5 of the I Ks channel at pH 7.5 [1]: retain the ability to shift the voltage dependence

CCC=CCC=CCC=CCC=CCC=CCCCCCC(=O)O [22:5Δ7,10,13,16,19, Docosapentaenoic acid (7,10,13,16,19)]
Max ΔV 0.5 (shift of voltage dependence of activation) [2]: −4 ± 0.13 mV | Max I/I 0 (relative increase in K+ current at 0 mV) [2]: 1.6 ± 0.05 | Max G max/G max0 (maximal conductance normalized to control) [2]: 1.2 ± 0.01 | EC50 ([2]; read-out: K m of G max, Hill fit of dose response): 1.2 ± 1.7 µM | EC50 [2, 4]: 11.1 ± 0.6 µM

Source: publication PMC6335172 (Acta Physiologica (Oxford, England), 2018)
